Test results from patent US7238694B2, “Rifamycin imino derivatives effective against drug-resistant microbes” (Cumbre Pharmaceuticals, Inc., priority 2004, dated 2007).
Converted amounts (≈) assume the structure as drawn.

What was measured:
Type in all cases: cell-based
[1] = tested on: Staphylococcus aureus ATCC29213 rpoB^H418Y; test: microbe, parasite or virus in culture; conditions: Staphylococcus aureus, ATCC29213; rifR strain; Cation-Adjusted Mueller-Hinton Broth, 37° C.; read-out: MIC
[2] = tested on: Streptococcus pyogenes ATCC19615; test: MIC, microbroth dilution (NCCLS); conditions: rifS strain, THY Broth, 37° C., read-out: MIC
[3] = tested on: Streptococcus pneumoniae ATCC6303; test: MIC, microbroth dilution (NCCLS); conditions: rifS strain, THY Broth with 1 mg/mL catalase, 5% CO2, 37° C., read-out: MIC
[4] = tested on: Haemophilus influenzae ATCC10211; test: MIC, microbroth dilution (NCCLS); conditions: rifS strain, BHI Broth with NAD and hematin, 37° C., read-out: MIC
[5] = tested on: Staphylococcus aureus ATCC29213; test: MIC, microbroth dilution (NCCLS); conditions: rifS strain, Cation-Adjusted Mueller-Hinton Broth, 37° C., read-out: MIC
[6] = tested on: Staphylococcus aureus MT1222 gyrA^A116E grlB^S80F; test: microbe, parasite or virus in culture; conditions: cipR strain, Cation-Adjusted Mueller-Hinton Broth, 37° C., read-out: MIC
[7] = tested on: Staphylococcus epidermidis ATCC12228; test: MIC, microbroth dilution (NCCLS); conditions: rifS strain, Cation-Adjusted Mueller-Hinton Broth, 37° C., read-out: MIC

SMILES: COc1c(N2CCN(/N=C/C3=C4NC(=O)/C(C)=C\C=C\[C@H](C)[C@H](O)[C@@H](C)[C@@H](O)[C@@H](C)[C@H](OC(C)=O)[C@H](C)[C@@H](OC)/C=C/O[C@@]5(C)Oc6c(C)c(O)c(c(c6C5=O)C3=O)C4=O)C(C)C2)c(F)cc2c(=O)c(C(=O)O)cn(C3CC3)c12 (mixture of isomers) [Example 12, (R/S)-3-[4-(3-Carboxy-1-cyclopropyl-6-fluoro-8-methoxy-4-oxo-1,4-dihydroquinolin-7-yl)-2-methylpiperazin-1-yl-aminomethylenyl]rifamycin S]
- MIC [1]: 0.06 to 16 µg/mL (≈ 0.0547 to 14.6 µM)
- MIC [2]: 0.008 to 0.03 µg/mL (≈ 0.0073 to 0.0274 µM)
- MIC [3]: 0.008 to 0.06 µg/mL (≈ 0.0073 to 0.0547 µM)
- MIC [4]: 0.125 to 4 µg/mL (≈ 0.114 to 3.65 µM)
- MIC [5]: 0.008 to 1 µg/mL (≈ 0.0073 to 0.912 µM)
- MIC [6]: 0.008 to 0.125 µg/mL (≈ 0.0073 to 0.114 µM)
- MIC [7]: 0.008 to 0.1 µg/mL (≈ 0.0073 to 0.0912 µM)

SMILES: CO[C@H]1/C=C/O[C@@]2(C)Oc3c(C)c(O)c4c(O)c(c(/C=N/N(C)C5CCN(c6cc7c(cc6F)c(=O)c(C(=O)O)cn7C6CC6)C5)c(O)c4c3C2=O)NC(=O)/C(C)=C\C=C\[C@H](C)[C@H](O)[C@@H](C)[C@@H](O)[C@@H](C)[C@H](OC(C)=O)[C@@H]1C (mixture of isomers) [Example 15, (R/S)-3-[1-(3-Carboxy-1-cyclopropyl-6-fluoro-4-oxo-1,4-dihydroquinolin-7-yl)-pyrrolidin-3-yl-N′-methylhydrazinomethylenyl]rifamycin SV]
- MIC [1]: 0.06 to 16 µg/mL (≈ 0.0562 to 15 µM)
- MIC [2]: 0.008 to 0.03 µg/mL (≈ 0.00749 to 0.0281 µM)
- MIC [3]: 0.008 to 0.06 µg/mL (≈ 0.00749 to 0.0562 µM)
- MIC [4]: 0.125 to 4 µg/mL (≈ 0.117 to 3.74 µM)
- MIC [5]: 0.008 to 1 µg/mL (≈ 0.00749 to 0.936 µM)
- MIC [6]: 0.008 to 0.125 µg/mL (≈ 0.00749 to 0.117 µM)
- MIC [7]: 0.008 to 0.1 µg/mL (≈ 0.00749 to 0.0936 µM)

SMILES: COc1c(N2CCC(C3(N(C)C4CCN(/N=C/c5c6c(O)c7c(O)c(C)c8c(c7c5O)C(=O)[C@@](C)(O/C=C/[C@H](OC)[C@@H](C)[C@@H](OC(C)=O)[C@H](C)[C@H](O)[C@H](C)[C@@H](O)[C@@H](C)/C=C/C=C(/C)C(=O)N6)O8)CC4)CC3)C2)c(F)cc2c(=O)c(C(=O)O)cn(C3CC3)c12 (mixture of isomers) [Example 16]
- MIC [1]: 0.06 to 16 µg/mL (≈ 0.0491 to 13.1 µM)
- MIC [2]: 0.008 to 0.03 µg/mL (≈ 0.00655 to 0.0246 µM)
- MIC [3]: 0.008 to 0.06 µg/mL (≈ 0.00655 to 0.0491 µM)
- MIC [4]: 0.125 to 4 µg/mL (≈ 0.102 to 3.27 µM)
- MIC [5]: 0.008 to 1 µg/mL (≈ 0.00655 to 0.819 µM)
- MIC [6]: 0.008 to 0.125 µg/mL (≈ 0.00655 to 0.102 µM)
- MIC [7]: 0.008 to 0.1 µg/mL (≈ 0.00655 to 0.0819 µM)

SMILES: CO[C@H]1/C=C/O[C@@]2(C)Oc3c(C)c(O)c4c(O)c(c(/C=N/N5CCC(N(C)C6(C7CCN(c8c(F)cc9c(=O)c(C(=O)O)cn(C%10CC%10)c9c8Cl)C7)CC6)CC5)c(O)c4c3C2=O)NC(=O)/C(C)=C\C=C\[C@H](C)[C@H](O)[C@@H](C)[C@@H](O)[C@@H](C)[C@H](OC(C)=O)[C@@H]1C (mixture of isomers) [Example 17, (R/S)-3-{[4-({1-[1-(3-Carboxy-8-chloro-1-cyclopropyl-6-fluoro-4-oxo-1,4-dihydro-quinolin-7-yl)-pyrrolidin-3-yl]-cyclopropyl}-methyl-amino)-piperidin-1-ylimino]-methyl}-rifamycin SV]
- MIC [1]: 0.06 to 16 µg/mL (≈ 0.0489 to 13.1 µM)
- MIC [2]: 0.008 to 0.03 µg/mL (≈ 0.00653 to 0.0245 µM)
- MIC [3]: 0.008 to 0.06 µg/mL (≈ 0.00653 to 0.0489 µM)
- MIC [4]: 0.125 to 4 µg/mL (≈ 0.102 to 3.26 µM)
- MIC [5]: 0.008 to 1 µg/mL (≈ 0.00653 to 0.816 µM)
- MIC [6]: 0.008 to 0.125 µg/mL (≈ 0.00653 to 0.102 µM)
- MIC [7]: 0.008 to 0.1 µg/mL (≈ 0.00653 to 0.0816 µM)

SMILES: COc1c(N2CCC(N/N=C/c3c4c(O)c5c(O)c(C)c6c(c5c3O)C(=O)[C@@](C)(O/C=C/[C@H](OC)[C@@H](C)[C@@H](OC(C)=O)[C@H](C)[C@H](O)[C@H](C)[C@@H](O)[C@@H](C)/C=C/C=C(/C)C(=O)N4)O6)C2)c(F)cc2c(=O)c(C(=O)O)cn(C3CC3)c12 (mixture of isomers) [Example 21, (R/S)-3-[1-(3-Carboxy-1-cyclopropyl-6-fluoro-8-methoxy-4-oxo-1,4-dihydroquinolin-7-yl)-pyrrolidinyl-3-hydrazino-methylenyl]-rifamycin SV]
- MIC [1]: 0.06 to 16 µg/mL (≈ 0.0553 to 14.8 µM)
- MIC [2]: 0.008 to 0.03 µg/mL (≈ 0.00738 to 0.0277 µM)
- MIC [3]: 0.008 to 0.06 µg/mL (≈ 0.00738 to 0.0553 µM)
- MIC [4]: 0.125 to 4 µg/mL (≈ 0.115 to 3.69 µM)
- MIC [5]: 0.008 to 1 µg/mL (≈ 0.00738 to 0.922 µM)
- MIC [6]: 0.008 to 0.125 µg/mL (≈ 0.00738 to 0.115 µM)
- MIC [7]: 0.008 to 0.1 µg/mL (≈ 0.00738 to 0.0922 µM)

SMILES: COc1c(N2CCC(N(C)/N=C/c3c4c(O)c5c(O)c(C)c6c(c5c3O)C(=O)[C@@](C)(O/C=C/[C@H](OC)[C@@H](C)[C@@H](OC(C)=O)[C@H](C)[C@H](O)[C@H](C)[C@@H](O)[C@@H](C)/C=C/C=C(/C)C(=O)N4)O6)C2)c(F)cc2c(=O)c(C(=O)O)cn(C3CC3)c12 (mixture of isomers) [Example 22, (R/S)-3-[1-(3-Carboxy-1-cyclopropyl-6-fluoro-8-methoxy-4-oxo-1,4-dihydroquinolin-7-yl)-pyrrolidinyl-3-methylhydrazino-methylenyl]-rifamycin SV]
- MIC [1]: 0.06 to 16 µg/mL (≈ 0.0546 to 14.6 µM)
- MIC [2]: 0.008 to 0.03 µg/mL (≈ 0.00728 to 0.0273 µM)
- MIC [3]: 0.008 to 0.06 µg/mL (≈ 0.00728 to 0.0546 µM)
- MIC [4]: 0.125 to 4 µg/mL (≈ 0.114 to 3.64 µM)
- MIC [5]: 0.008 to 1 µg/mL (≈ 0.00728 to 0.911 µM)
- MIC [6]: 0.008 to 0.125 µg/mL (≈ 0.00728 to 0.114 µM)
- MIC [7]: 0.008 to 0.1 µg/mL (≈ 0.00728 to 0.0911 µM)

SMILES: COc1c(N2CCN(/N=C/c3c4c(O)c5c(O)c(C)c6c(c5c3O)C(=O)[C@@](C)(O/C=C/[C@H](OC)[C@@H](C)[C@@H](OC(C)=O)[C@H](C)[C@H](O)[C@H](C)[C@@H](O)[C@@H](C)/C=C/C=C(/C)C(=O)N4)O6)C(C(=O)O)C2)c(F)cc2c(=O)c(C(=O)O)cn(C3CC3)c12 (mixture of isomers) [Example 23, (R/S)-3-[4-(3-Carboxy-1-cyclopropyl-6-fluoro-8-methoxy-4-oxo-1,4-dihydroquinolin-7-yl)-3-carboxy-piperazin-1-yl-aminomethylenyl]-rifamycin SV]
- MIC [1]: 0.06 to 16 µg/mL (≈ 0.0532 to 14.2 µM)
- MIC [2]: 0.008 to 0.03 µg/mL (≈ 0.00709 to 0.0266 µM)
- MIC [3]: 0.008 to 0.06 µg/mL (≈ 0.00709 to 0.0532 µM)
- MIC [4]: 0.125 to 4 µg/mL (≈ 0.111 to 3.55 µM)
- MIC [5]: 0.008 to 1 µg/mL (≈ 0.00709 to 0.886 µM)
- MIC [6]: 0.008 to 0.125 µg/mL (≈ 0.00709 to 0.111 µM)
- MIC [7]: 0.008 to 0.1 µg/mL (≈ 0.00709 to 0.0886 µM)
